What all share (test): biochemical
The target of experiment [1] is drug-resistant HIV-1 PR (PR02-A) harboring L10I/G48S/I54V/V82F/L90M mutations (Human immunodeficiency virus type 1 group M subtype B, UniProt P12497, G536S/I542V/L498I/L578M/V570F). On the procedure:
(§1) In vitro transcription and cell-free protein synthesis were performed using WEPRO7240 wheat germ extract (CellFree Sciences, Yokohama, Japan). Transcription was performed using SP6 RNA polymerase, as described previously ([Matsunaga et al., 2014]). The translation reaction was performed in bilayer mode with slight modifications. Briefly, translation mixture (forming the bottom layer) consisted of 10 μl of each mRNA (usually 30–35 μg), 10 μl of WEPRO7240 (CellFree Sciences, Yokohama, Japan), and 0.8 μl of 1 μg/μl creatine kinase (Roche Diagnostics K. K., Tokyo, Japan) in 20.8 μl of SUB-AMIX® (CellFree Sciences, Yokohama, Japan). SUB-AMIX (206 μl) was placed on top of the translation mixture, thus forming the top layer. After incubation at 16°C for 16 h, synthesized proteins were confirmed by immunoblotting. For biotinylation of the substrate, 1 μl (50 ng) of crude biotin ligase (BirA) expressed in a wheat germ cell-free system was added to the bottom layer, and 0.5 μM (final concentration) of D-biotin (Nacalai Tesque, Inc., Kyoto, Japan) was added to both the top and bottom layers, as described previously ([Matsuoka et al., 2010]). As an initial experimental test, radiolabeled protein was produced by cell-free synthesis to confirm the yield and solubility of generated proteins as described previously ([Kamura et al., 2005]). In actual drug susceptibility testing, quantitations of synthesized HIV-1 PR proteins were performed by densitometric scanning of Coomassie Brilliant Blue (CBB)-stained bands as compared with purified HIV-1 PR or bovine serum albumin (BSA) ([Madin et al., 2000]).
(§2) CFDSA was performed using cell-free–synthesized PR, substrate peptide, and the AlphaScreen® system (PerkinElmer, Boston, MA, USA). […] The mixture was incubated at 37°C for 30 min in a 384-well Alphaplate (PerkinElmer). The enzymatic reaction was initiated by the addition of 5 μl of 0.25 μM cell-free–synthesized GST-p2/p7-bls substrate to each well, followed by incubation at 37°C for 2 h. Detection of PR activity was performed essentially as described in the AlphaScreen IgG detection kit instruction manual (PerkinElmer). Briefly, 10 μl of detection mixture containing 20 mM Tris-HCl (pH 7.5), 0.2 mM DTT, 5 mM MgCl2, 5 μg/ml anti-GST antibody, 1 mg/ml BSA, 0.1 μl streptavidin-coated donor beads, and 0.1 μl anti-IgG acceptor beads were added to each well of the 384-well plate, followed by incubation at 23°C for 1 h in the dark. Luminescence signals were analyzed with the AlphaScreen detection program using the EnSpire software (PerkinElmer), and light intensities in the presence of the serially diluted inhibitors were used to calculate their IC50 values. PI-resistance levels were determined by comparing the IC50 values of drug-resistant PR with those of NL4-3 PR. The results for each PR were normalized based on protein productivity, as determined by liquid scintillation counting. IC50 values were calculated using XLfit (ID BUSINESS SOLUTIONS, Guildford, UK). The criteria for CFDSA measurement of resistance were as follows: fold resistance value (FRV) = IC50 ratio of test PR/IC50 ratio of WT PR.
(§3) For the quantitative and high-throughput measurement of HIV-1 PR activity using AlphaScreen technology, we designed a reporter substrate comprising a partial Gag p2-p7 junction peptide flanked by N-terminal GST and C-terminal biotin binding sequence (GST-p2/p7-biotin) as described in Figure 2A.

The target in the next experiment is WT HIV-1 PR (NL4-3) (Human immunodeficiency virus type 1 group M subtype B, UniProt P12497). On the procedure:
as §1, §2, §3

The test system of experiment [2] is drug-resistant HIV-1 PR (PR02-A) harboring L10I/G48S/I54V/V82F/L90M mutations. Conditions: IC50 of drug-resistant PR divided by IC50 of WT PR. On the procedure: as §1, §2, §3

`CC(C)CN(C[C@@H](O)[C@H](Cc1ccccc1)NC(=O)O[C@H]1CCOC1)S(=O)(=O)c1ccc(N)cc1` [APV, amprenavir]: the figures for the IC50 (in experiment [1]; against WT HIV-1 PR (NL4-3)) were 93.5 nM and 23.2 nM, respectively. The “fold-resistance to WT PR (FRV, DR/WT)” value in experiment [2] is given as 4.0 fold.

Take `COC(=O)N[C@H](C(=O)N[C@@H](Cc1ccccc1)[C@@H](O)CN(Cc1ccc(-c2ccccn2)cc1)NC(=O)[C@@H](NC(=O)OC)C(C)(C)C)C(C)(C)C` [ATV, atazanavir]: the concentration for half-maximal inhibition (IC50) came out at 137 nM in experiment [1] and 17.8 nM against WT HIV-1 PR (NL4-3). In experiment [2], the “fold-resistance to WT PR (FRV, DR/WT)” value was found to be 7.7 fold.

For orientation: IC50 means the concentration that inhibits the measured activity by half. Read a high IC50 as weaker potency in that assay.

The values are drawn from article PMC4628118 (Frontiers in Microbiology, 2015).
